Assay results reported in paper PMC6981941 (International Journal of Molecular Sciences, 2019).

Tests used:
YpHddC [1] = target: T1, YpHddC (Yersinia pseudotuberculosis, UniProt Q8GJ90)
T1 construct: gene hddC

YpHddC [2] = target: T1, YpHddC; remark: listed apart in the source

T1 sequence (Q8GJ90 1-225 limits assumed): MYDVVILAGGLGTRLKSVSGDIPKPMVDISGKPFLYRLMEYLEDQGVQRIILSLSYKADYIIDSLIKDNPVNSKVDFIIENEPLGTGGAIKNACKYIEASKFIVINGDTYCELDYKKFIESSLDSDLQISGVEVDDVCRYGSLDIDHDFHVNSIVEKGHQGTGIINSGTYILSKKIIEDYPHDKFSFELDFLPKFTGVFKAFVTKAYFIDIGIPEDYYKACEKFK

Row | Structure (SMILES) | X-ray crystal structure, 1.55 Å (YpHddC [1]) | malachite green assay with pyrophosphatase (YpHddC [2])
1 | Nc1nc2c(ncn2[C@@H]2O[C@H](COP(=O)(O)OP(N)(=O)O)[C@@H](O)[C@H]2O)c(=O)[nH]1 [GMPPN] | The extra densities were well matched with one magnesium, one GMPPN (Figure A1) | 
2 | O=P(O)(O)O[C@H]1O[C@H](CO)[C@@H](O)[C@H](O)[C@@H]1O [αM1P] |  | we used α-D-Mannose-1-phosphate (αM1P) purchased from Sigma for a substrate
3 | Nc1nc2c(ncn2[C@@H]2O[C@H](COP(=O)(O)OP(=O)(O)OP(=O)(O)O)[C@@H](O)[C@H]2O)c(=O)[nH]1 [GTP] |  | The main molecular property of YpHddC is its GTP preference
